Experimental data reported in patent EP3485874A1, “METHOD OF PREPARING A NATURAL DEEP EUTECTIC SOLVENT (NADES)-ACTIVE INGREDIENT SYSTEM; A NADES-, AND PREFERABLY A POLYMERIC PRECIPITATION INHIBITOR CONTAINING NADES-, BASED DRUG FORMULATION TECHNOLOGY AND DEVELOPMENT METHOD” (SeraNovo B.V., priority 2017, dated 2019).
≈ marks a conversion by molar mass, not a printed value. Like-named read-outs stand apart in the source and are kept apart here.

Experiments:
Type in all cases: physicochemical
[1] = Stability of the active ingredient (pH, storage)
Procedure: Suitable secondary criteria are for instance the absolute oral bioavailability, typically denoted as a percentage of the maximum bioavailability of 100% which is defined as the bioavailability of the intravenous formulation as measured in a living being such as those used in animal trials or in human trials. Bioavailability is measured as the AUC (Area Under Curve) of the plasma concentration of a drug collected over a certain period of time, which depends on the half-life of the drug. Another suitable criterion is the stability data (such as temperature sensibility and pH range of stability expressed in time units). This is expressed as a duration in days/months/years where the compound has not undergone unacceptable levels of degradation (<10%) in specific conditions e.g. low pH.

[2] = Solubility of the active ingredient in comparable solvents (polar to nonpolar)
Procedure: These values are expressed in mg/ml and determined at a temperature of 25°C at 1 atm. In a preferred embodiment, also the solubility is determined in water-based systems having different pH's, or having different temperatures; and in water-based systems wherein co-solvents are present; and in stomach or intestinal media. Solubility information in a broad range of solvents (including oils, dichloromethane, methanol), is useful because the knowledge of in which type of solvents the active ingredient dissolves well, helps in designing a NADES with similar properties.

[3] = pKa of the active ingredient
Excerpt: Further, the analysis also at least involves determination of acidity/basicity of the compound by determining the pKa value by standard methods. In the case of previously analyzed compounds such information typically available in published literature.

[4] = Solubility of the active ingredient in NADES; settings: thermodynamic from solid
Procedure: Subsequently, selected constituents are weighed out in the appropriate molar ratios and corresponding masses and are added to a suitable receptacle, such as a small bottle or other small vessel. In the receptacle generally a stirring element is added, such as a stirring flea. If two or more solid constituents are present, these are generally heated, for instance to about 70°C. When at least one liquid constituent is present, it is generally not needed to heat the system to temperatures higher than about 50°C. The constituents are stirred. When two (or more) solid constituents are mixed, this often leads to high or very high viscosities, in which case addition of some water or other liquid excipients such as propylene glycol is recommended. The stirring is continued until a clear liquid is formed.
After a clear liquid is obtained, it is preferred to let it cool and sit for 24 hours or so, as a check for stability. If a NADES is not stable at RT (room temperature; in other words, if the eutectic point is higher than RT at the selected molar ratio), one can try adding additional constituents or trying a different molar ratio.
Once cooled, the pH of the system is measured. An acidic NADES will in general be good at solubilizing a basic active ingredient due to protonation and vice versa. The stability can also be influenced by the pH, where usually a range of pH values is given that results in the best stability.
Usually it is apparent within an hour whether or not a solvent is going to achieve any worthwhile solubility value. If the solute sticks to the side of the receptacle and/or floats on top, investigation into this solvent can be terminated. If the solute makes for a cloudy solution, further dilution may yield success.

[5] = Particle size of precipitate after about 100 fold dilution of the NADES:PPI formulation with intestinal medium (FaSSIF), optical microscopy
Procedure: All PPI's that are soluble at approximately a PPI to active ingredient ratio of 1 to 5 are selected for the next stage of testing. A small sample of for example 100 µl is taken from the NADES:PPI mixture and the appropriate mass of active ingredient is solubilized in the system as above. Each NADES: PPI: active ingredient sample is diluted approximately 100 fold with intestinal medium solutions e.g. Fast State Simulated Intestinal Fluid (FaSSIF). The system with the smallest particle size over a 2 hour period is determined to be the best performing formulation. The particle size is determined using visual inspection and optical microscopy.
The precipitant molecules should in this light have a size less than approximately 10/µm, preferably less than 5µm and ideally less than about 1µm. These sizes are measured at 10 minute intervals over a 2 hours period to analyse the crystal growth. The crystal sizes are monitored using an optical microscope in initial samples; yet are more accurately measured after 2 hours using a Malvern Mastersizer 3000 or similar particle sizing equipment.
Below are microscope images of formulations of flufenamic acid diluted with intestinal medium. The dilution is approximately similar to 1ml of formulation being released into the intestine. The goal is to have sufficiently small particle sizes for a sufficiently long period of time to promote drug absorption. Figures 1, 2 and 3 show progressions in particle size of flufenamic acid in formulations designed using the present invention.
The following example is of a poorly water-soluble molecule, Paclitaxel, and the process of designing a system using the aforementioned invention. […] The second objective was to select one or more PPI's capable of controlling the size of precipitant upon an approximately 100 fold dilution with intestinal medium. The target dose of the formulation was 30mg/ml. The variation in particle size between formulations was analysed with visual inspection. The best performing formulations were compared with a size calibrated optical microscope and camera.

[6] = NADES, organic solvent or mixture, Choline Chloride: Propylene Glycol (1:3), pH 6.71

CC(=O)O[C@H]1C(=O)[C@@]2(C)[C@H]([C@H](OC(=O)c3ccccc3)[C@]3(O)C[C@H](OC(=O)[C@H](O)[C@@H](NC(=O)c4ccccc4)c4ccccc4)C(C)=C1C3(C)C)[C@]1(OC(C)=O)CO[C@@H]1C[C@@H]2O [Paclitaxel]
pH range in which most stable [1]: 3-6 pH
Stability at basic pH ([1]; basic pH (8)): degrades quickly
solubility ([2]; caster oil, 25 °C, oil or lipid, read-out: approximate solubility in caster oil): 15 to 20 mg/mL (≈ 17.6 to 23.4 mM)
solubility in ethanol ([2]; ethanol): 1.5 mg/mL (≈ 1.76 mM)
solubility ([2]; olive oil, 25 °C, oil or lipid, read-out: approximate solubility in olive oil): 15 to 20 mg/mL (≈ 17.6 to 23.4 mM)
pKa [3]: 11.9
pKa ([3]; read-out: pKa): 11.9
solubility [4, 6]: 30 mg/mL (≈ 35.1 mM)
solubility ([4]; aqueous with cosolvent or surfactant or cyclodextrin, Malic acid: Beta alanine: Water (1:1:2), pH 3.43, acidic NADES): < 1 mg/mL
solubility ([4]; aqueous with cosolvent or surfactant or cyclodextrin, Sucrose: Glucose: Fructose: Water (1:1:1:8), pH 3.36, polar NADES): < 1 mg/mL
solubility ([4]; pH 9.8, aqueous with cosolvent or surfactant or cyclodextrin, Choline Chloride: Urea: Water (1:1:2), pH 9.80, polar NADES): < 1 mg/mL
Particle size result (microscope photograph, Fig. 4) ([5]; 30 mg/ml in choline chloride: propylene glycol (1:3) with 30 mg/ml hypromellose acetate succinate solubilized in FaSSIF, 40x magnification): good result
Particle size, majority of observable particles (Fig. 4) ([5]; formulation diluted with intestinal medium, particles less than 1 µm not detected by optical microscopy): less than 10 µm

O=C(O)c1ccccc1Nc1cccc(C(F)(F)F)c1 [Flufenamic acid]
Stability ([1]; both acidic and basic aqueous solutions, period of 3 months at RT): stable
solubility in cyclohexane ([2]; cyclohexane): very low
solubility ([2]; dimethyl sulfoxide, 25 °C, organic solvent or mixture, read-out: solubility in dimethyl sulfoxide): > 50 mg/mL
solubility ([2]; ethanol, 25 °C, organic solvent or mixture, read-out: solubility in ethanol): > 50 mg/mL
solubility in hexane ([2]; hexane): very low
solubility in mineral oil (paraffin oil) ([2]; mineral oil (paraffin oil)): very low
Water solubility ([2]; water, 25°C and 1atm): very low
solubility ([2]; water, 25°C and 1atm, read-out: Water solubility): 0.009 mg/mL (≈ 0.032 mM)
pKa ([3]; read-out: pKa): 3.65
solubility [4, 6]: 28 mg/mL (≈ 99.6 mM)
solubility ([4]; aqueous with cosolvent or surfactant or cyclodextrin, Choline chloride: Lactic acid: water (2:1:2), pH 2.19, polar NADES): < 1 mg/mL
solubility ([4]; organic solvent or mixture, Acetamide: Propylene Glycol (1:2), pH 6.47, basic NADES): 93.1 mg/mL (≈ 331 mM)
solubility ([4]; organic solvent or mixture, Acetamide: Propylene Glycol (1:3), pH 6.89, basic NADES): 50 mg/mL (≈ 178 mM)
solubility ([4]; organic solvent or mixture, Choline Chloride: Ethylene Glycol (1:3), pH 6.08, neutral NADES): 28 mg/mL (≈ 99.6 mM)
solubility ([4]; organic solvent or mixture, Choline chloride: glucose: butylene glycol (2:1:1), polar NADES): < 1 mg/mL
solubility ([4]; organic solvent or mixture, Sorbitol: Urea (1:1), pH 8.3, polar NADES): < 1 mg/mL
Particle size result (microscope photograph, Fig. 2) ([5]; 28 mg/ml in choline chloride: propylene glycol (1:3) with 14 mg/ml Polyethylene Glycol-4000 solubilized in FaSSIF, 40x magnification): poor result
Particle size result (microscope photograph, Fig. 3) ([5]; 28 mg/ml in choline chloride: propylene glycol (1:3) with 56 mg/ml Polyethylene Glycol-4000 solubilized in FaSSIF, 40x magnification): good result
